Measurements taken from article PMC7520419 (The AAPS Journal, 2020).
≈ marks a conversion by molar mass, not a printed value. Structures can show the parent of a compound that is named as a salt. Where two headings read alike, the source gives them in different places.

Tests used:
[1] = BCS classification; format: physicochemical
[2] = cited from earlier work; for Observed AUC(0-inf) Fasted / Observed Cmax Fasted / Observed AUC(0-inf) Fed / Observed Cmax Fed / Observed AUC Ratios (Fed/Fasted) / Observed Cmax Ratios (Fed/Fasted): ref published clinical data (Table I)
[3] = PBPK food effect modeling (Simcyp V17.1 and/or GastroPlus V9.5; Model 1 / Model 2); set-up: species or system human
[4] = set-up: method as in Table I reference column; settings: not generated within this working group; ref Table I; cited from earlier work
[5] = Effective human jejunum permeability (Peff,man) used in the PBPK model; format: in vitro ADME; settings: human, 1 h
Method: Permeation rates of the compounds, including reference compounds, were measured in the apical-to-basolateral (AB) direction. The donor and receiver wells were sampled immediately after application of the compound to the donor well to determine baseline concentrations, and again after 1 h. Quantification was done using high-performance liquid chromatography combined with mass spectrometry (HPLC-MS/MS) analysis and monolayer integrity was verified by analyzing the receiver samples for LuY fluorescence in a plate reader.

[6] = pKa
[7] = cited from earlier work; for Solubility at pH 6.5: not generated within this working group, ref Table I
[8] = test system: Caco-2; settings: not generated within this working group; ref Table I; cited from earlier work
[9] = Solubility measurement in biorelevant media (FaSSIF-V2, FeSSIF-V2); settings: 37 °C, thermodynamic from solid
Method: (§1) The solubility of the drug substances was determined in biorelevant media as well as in aqueous buffers at different pH. Fasted state simulated gastric fluid (FaSSGF) ([37]), fasted state simulated intestinal fluid (FaSSIF-V2) ([38]), and fed state simulated intestinal fluid (FeSSIF-V2) ([39]) were prepared according to the instructions provided by Biorelevant (Biorelevant.com Ltd., London, UK). […] For neutral compounds, solubility was determined at pH 2, pH 4, and pH 7.
(§2) For freely soluble compounds, the extent of solubilization was measured only up to 10 mg/mL.

[10] = Solubility measurement in aqueous buffer solutions; settings: pH 6.5, aqueous buffer, thermodynamic from solid
Method: as §1, §2

[11] = direction, AUC and/or Cmax ratio fed to fasted, BE criteria 0.8–1.25, ref drug label
[12] = micronized formulation, healthy volunteers, high-fat breakfast

## Cc1c(O)cccc1C(=O)N[C@@H](CSc1ccccc1)[C@H](O)CN1C[C@H]2CCCC[C@H]2C[C@H]1C(=O)NC(C)(C)C [Nelfinavir mesylate]
[1]
  BCS: II/IV
[2]; Model 2
  Observed AUC(0-inf) Fasted: 7080 ng·h/mL
  Observed Cmax Fasted: 895 ng/mL
  Observed AUC(0-inf) Fed: 35800 ng·h/mL
  Observed Cmax Fed: 3910 ng/mL
  Observed AUC Ratios (Fed/Fasted): 5.06
  Observed Cmax Ratios (Fed/Fasted): 4.37
[2]; clinically observed PK change (AUC, Cmax) fed vs fasted, compiled by literature search
  Food Effect: Positive (positive if the ratio of fed > fasted)
[2]; [11]
  Food Effect: Positive (positive if the ratio of fed > fasted)
[2]; ref drug label
  food effect (FE) direction: positive FE
[3]; Model 2
  AUC Ratio of Ratios (Sim'd / Obs'd): 0.58
  Cmax Ratio of Ratios (Sim'd / Obs'd): 0.66
[4]
  FaSSIF solubility: 22^^ μg/ml
  FeSSIF solubility: 243^^ μg/ml
[5]
  Effective permeability: 70 ×10⁻⁶ cm/s
[6]; pKa (b, basic)
  pKa: 6
[7]
  Solubility at pH 6.5: 41.4^^ μg/ml

## C[C@@H](O[C@H]1OCCN(Cc2n[nH]c(=O)[nH]2)[C@H]1c1ccc(F)cc1)c1cc(C(F)(F)F)cc(C(F)(F)F)c1 [Aprepitant]
[1]
  BCS: II/IV
[2]; 100 mg micronized
  AUC observed, fasted: 8571 ng·h/mL
  AUC observed, fed: 24,057 ng.h/ml
  Cmax observed, fasted: 496 ng/mL
  Cmax observed, fed: 1098 ng/mL
[2]; Micronized, fed vs fasted, compiled by literature search
  Food Effect: Positive (positive if the ratio of fed > fasted)
[2]; Model 2
  Observed AUC(0-inf) Fasted: 8570 ng·h/mL
  Observed Cmax Fasted: 496 ng/mL
  Observed AUC(0-inf) Fed: 24100 ng·h/mL
  Observed Cmax Fed: 1100 ng/mL
[2]; Nanonized, fed vs fasted, compiled by literature search
  Food Effect: None (none if no significant change in AUC and Cmax with food)
[2]; [12]
  increase in AUC with food: 2.8 fold
  increase in Cmax with food: 2.2 fold
[4]
  FaSSIF solubility: 5.4 µg/mL
  FeSSIF solubility: 92.4 µg/mL
[5]
  Effective permeability: 240 ×10⁻⁶ cm/s
[6]; pKa (a, acidic)
  pKa: 9.15
[6]; pKa (b, basic)
  pKa: 2.45
[7]
  Solubility at pH 6.5: 0.7 μg/ml
[7]; pH 6.8
  solubility in US Pharmacopeia Simulated Intestinal Fluids (SIFsp): 0.7 µg/mL (≈ 1.31 µM)
[7]; pH 8.0, thermodynamically stable form
  solubility in water: 7 µg/mL (≈ 13.1 µM)

## CCc1nn(CCCN2CCN(c3cccc(Cl)c3)CC2)c(=O)n1CCOc1ccccc1 [Nefazodone HCl]
[8]
  Apparent permeability (Caco-2): 11 (Caco-2) ^^ × 10^−6 cm/s
[2]; Model 1
  Observed AUC(0-inf) Fasted: 1540 ng·h/mL
  Observed Cmax Fasted: 301 ng/mL
  Observed AUC(0-inf) Fed: 1240 ng·h/mL
  Observed Cmax Fed: 295 ng/mL
  Observed AUC Ratios (Fed/Fasted): 0.80
  Observed Cmax Ratios (Fed/Fasted): 0.98
[2]; Model 2
  Observed AUC(0-inf) Fasted: 1540 ng·h/mL
  Observed Cmax Fasted: 301 ng/mL
  Observed AUC(0-inf) Fed: 1240 ng·h/mL
  Observed Cmax Fed: 295 ng/mL
  Observed AUC Ratios (Fed/Fasted): 0.80
  Observed Cmax Ratios (Fed/Fasted): 0.98
[2]; [11]
  Food Effect: Negative (negative if ratio fasted > fed)
[2]; ref drug label
  food effect (FE) direction: negative FE
[9]; FaSSIF-V2 (fasted state simulated intestinal fluid), FaSSIF solubility
  solubility: 1390 µg/mL
[9]; FeSSIF-V2 (fed state simulated intestinal fluid), FeSSIF solubility
  solubility: 3100 µg/mL
[10]
  solubility: 5380 µg/mL
[3]; Model 1
  AUC Ratio of Ratios (Sim'd / Obs'd): 0.97
  Cmax Ratio of Ratios (Sim'd / Obs'd): 0.84
[3]; Model 2
  AUC Ratio of Ratios (Sim'd / Obs'd): 1.47
  Cmax Ratio of Ratios (Sim'd / Obs'd): 1.05
[5]
  Effective permeability: 220 ×10⁻⁶ cm/s
[6]
  pKa (b, basic): 6.50b
